From publication PMC10897476, “Pyridylpiperazine efflux pump inhibitor boosts in vivo antibiotic efficacy against K. pneumoniae” (EMBO Molecular Medicine, 2023)
pKi: −log10 of the molar value. “And” between values parts separate entries of the source, which are not always exact repeats. Identical values can stand only once. Like-named read-outs stand apart in the source and are kept apart here.

Columns and labels:
[1] = Toxicity in mice after a single oral administration; assay type: in vivo; conditions: over a 24-h period after a single oral administration at 30 mg/kg
Description: For these reasons, this compound was selected for multi-organ pharmacokinetic (PK) studies to measure its temporal distribution and tissue concentration in female mice (CD-1), following a single oral administration of 30 mg/kg (Fig. EV3A; Appendix Table S3).

[2] = target: T1, hERG Human Potassium Ion Channel (Homo sapiens, UniProt Q12809); test: hERG [3H] Dofetilide binding assay; conditions: at 30 µM
T1 construct: Eurofins Cerep France (contract assay)
T1 sequence (Q12809 whole entry): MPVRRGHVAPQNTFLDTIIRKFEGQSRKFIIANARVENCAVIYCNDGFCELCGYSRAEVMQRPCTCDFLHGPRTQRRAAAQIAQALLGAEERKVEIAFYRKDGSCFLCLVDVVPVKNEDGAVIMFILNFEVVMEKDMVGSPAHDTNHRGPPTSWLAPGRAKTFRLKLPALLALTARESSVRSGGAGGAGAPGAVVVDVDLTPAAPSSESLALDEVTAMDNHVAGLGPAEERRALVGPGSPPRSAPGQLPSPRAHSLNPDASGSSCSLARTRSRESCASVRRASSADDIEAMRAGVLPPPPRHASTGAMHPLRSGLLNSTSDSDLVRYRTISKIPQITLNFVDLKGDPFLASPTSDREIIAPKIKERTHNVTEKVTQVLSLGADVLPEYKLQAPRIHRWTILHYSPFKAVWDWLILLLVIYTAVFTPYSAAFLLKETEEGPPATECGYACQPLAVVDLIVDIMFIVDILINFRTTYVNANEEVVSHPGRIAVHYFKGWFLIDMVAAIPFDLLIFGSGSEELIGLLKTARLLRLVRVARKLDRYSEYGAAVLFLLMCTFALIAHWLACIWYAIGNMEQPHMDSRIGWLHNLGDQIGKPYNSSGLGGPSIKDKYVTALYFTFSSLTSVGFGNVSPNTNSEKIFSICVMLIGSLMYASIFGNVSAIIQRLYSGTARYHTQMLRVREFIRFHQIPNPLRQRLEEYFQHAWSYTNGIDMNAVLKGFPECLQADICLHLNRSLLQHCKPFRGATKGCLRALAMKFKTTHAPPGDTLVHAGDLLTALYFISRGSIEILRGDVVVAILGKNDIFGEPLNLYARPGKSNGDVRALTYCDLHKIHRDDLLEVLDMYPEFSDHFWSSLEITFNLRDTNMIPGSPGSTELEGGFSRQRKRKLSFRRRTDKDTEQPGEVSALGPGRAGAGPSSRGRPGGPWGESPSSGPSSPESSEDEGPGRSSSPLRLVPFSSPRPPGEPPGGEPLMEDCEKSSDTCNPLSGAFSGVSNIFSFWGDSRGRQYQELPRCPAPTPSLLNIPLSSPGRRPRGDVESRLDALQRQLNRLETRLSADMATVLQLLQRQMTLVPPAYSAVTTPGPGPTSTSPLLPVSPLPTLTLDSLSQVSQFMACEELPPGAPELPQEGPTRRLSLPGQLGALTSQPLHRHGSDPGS
Description: hERG (human ether-a-go-go-related gene) inhibition was measured at Eurofins Cerep France using hERG Human Potassium Ion Channel [3H] Dofetilide Binding (Antagonist Radioligand) Assay.

Solubility in PBS pH 7.4 = assay type: physicochemical; conditions: PBS pH 7.4, pH 7.4, aqueous buffer, thermodynamic from solid
Description: 0.5 mg of BDM91288 (5) were dissolved either in 1235 μL of PBS pH 7.4 (triplicate) or in 1235 µL of DMSO (triplicate twice). After gently stirring 24 h at room temperature, the solutions were centrifuged for 5 min at 4000 rpm and filtered over 0.45-μm filters (Millex-LH Millipore), excepted one of the DMSO triplicate. Then, 2 µL of each solution was diluted in 998 µL of MeOH were transferred in matrix tubes for LC-MS/MS analysis. The solubility was determined according to the following formula: Solubility (µM) = [AUC(filtered PBS)/AUC(not filtered DMSO)] × 1000.

[3] = Pharmacokinetics in mice, single oral dose (plasma, whole lung); conditions: for concentration at 0.5 h / concentration at 1 h / concentration at 1.5 h / concentration at 2 h / concentration at 4 h / concentration at 6 h / concentration at 24 h: mice
Description: BDM91288 (5) was dissolved in 10% kleptose hydroxypropyl-β-cyclodextrin in distilled water and administered per os at 30 mg/kg to female CD-1 mice (~25–30 g). The concentration of BDM91288 (5) in plasma and lungs was measured at different time points after administration of a single dose of compounds. Three mice per time point were anesthetized with isoflurane and blood taken from the retro-orbital sinus using sampling heparinated tubes (4 °C). The blood samples were centrifuged (3500 rpm, 20 min, 4 °C) for plasma separation and stored at −80 °C before BDM91288 measurement. After rodent sacrifice by cervical dislocation, lung was washed in sodium chloride solution (0.9%), frozen in liquid nitrogen and stored at −80 °C.
Plasma and BAL fluid samples were thawed on ice. Aliquots were precipitated with ice-cold MeCN/MeOH 50:50 (1 to 10 ratio) containing propranolol (100 nM) as internal standard. The samples were vigorously mixed with a vortex and centrifuged for 10 min at 12,000 rpm, 4 °C, and the supernatants were transferred into Matrix tubes for LC-MS/MS analysis. Lungs were homogenized in ultrapure water, in a 1 to 4 ratio (W/V) (using a Tissue Lyzer II from Qiagen); then compounds were extracted with a MeOH/MeCN 50:50 mixture in a 1 to 1 ratio (V/V). After centrifugation (12,000 rpm, 10 min, 4 °C) of the homogenate samples, supernatants were diluted (1 to 10) with a MeOH/MeCN 50:50 mixture containing propranolol (100 nM) as internal standard and transferred into Matrix tubes for LC-MS/MS analysis. Spiked standard solutions were prepared the same way in control matrix.
Samples were analysed using a UPLC system Acquity I Class (Waters), combined with a triple quadrupole mass spectrometer Xevo TQD (Waters). The column, placed at 40 °C, was an Acquity BEH C18 50 × 2.1 mm, 1.7 μm column (Waters) and the following mobile phases were used: H2O 0.1% HCOOH as solvent A and MeCN 0.1% HCOOH as solvent B at a flow rate of 0.6 mL/min. The gradient was initiated at 2% B, maintained for 10 s then increased linearly to 98% B in 1′50 and maintained at 98% B for 30 s before returning to initial conditions. […] Data analysis and processing were performed using MassLynx software (Waters).

[4] = system: K. pneumoniae AcrB variant V448E; test: Berberine accumulation assay, K. pneumoniae AcrB V448E; assay type: cell-based, Klebsiella pneumoniae; conditions: K. pneumoniae producing AcrB variant V448E
Description: (§1) The accumulation of the berberine AcrB substrate in K. pneumoniae WT and AcrB-V448E cells in the presence of different BDM91288 (5) concentrations was determined as described (Plé et al, [2022]) with minor modifications. Briefly, an overnight LB pre-culture of each strain (0.6 mL) was used to inoculate a 30-mL LB culture and incubated for around 2 h (37 °C, 150 rpm) to reach OD600 around 1. Cells were harvested by centrifugation (4000 × g, 10 min at 4 °C), washed three times with 10 mL of ice-cold buffer (50 mM potassium-phosphate pH 7.5 and 1 mM MgSO4) and resuspended into the same buffer containing also 0.2% glucose to an OD600 of 2. The bacterial suspension was then allowed to reach room temperature, after which 200 µL was dispensed to wells of an assay ready 96-black-well plate (Greiner Bio-One) containing 2 µL of 100× concentrated serial dilution of BDM91288 (5). To initiate the uptake experiment, 2 µL of berberine 20 mM (final concentration of 200 µM) was added to each well and transferred to a microplate fluorescence plate reader (Spark, Tecan), where the kinetics of berberine uptake was monitored for 20 min at 30 °C (excitation 365 nm/emission 540 nm). Experiments were performed 4 independent times, and berberine uptake was calculated for all conditions as the rate of fluorescence increase over the first 10 min and expressed as RFU/min (mean ± SD). […]

K. pneumoniae AcrB = K. pneumoniae AcrB (Klebsiella pneumoniae, UniProt A0A332Z023); test: Berberine accumulation assay, K. pneumoniae WT; assay type: cell-based; conditions: read-out: apparent Ki, concentration-dependent stimulation of berberine uptake, 200 µM berberine
K. pneumoniae AcrB, sequence (A0A332Z023 entry or part of it): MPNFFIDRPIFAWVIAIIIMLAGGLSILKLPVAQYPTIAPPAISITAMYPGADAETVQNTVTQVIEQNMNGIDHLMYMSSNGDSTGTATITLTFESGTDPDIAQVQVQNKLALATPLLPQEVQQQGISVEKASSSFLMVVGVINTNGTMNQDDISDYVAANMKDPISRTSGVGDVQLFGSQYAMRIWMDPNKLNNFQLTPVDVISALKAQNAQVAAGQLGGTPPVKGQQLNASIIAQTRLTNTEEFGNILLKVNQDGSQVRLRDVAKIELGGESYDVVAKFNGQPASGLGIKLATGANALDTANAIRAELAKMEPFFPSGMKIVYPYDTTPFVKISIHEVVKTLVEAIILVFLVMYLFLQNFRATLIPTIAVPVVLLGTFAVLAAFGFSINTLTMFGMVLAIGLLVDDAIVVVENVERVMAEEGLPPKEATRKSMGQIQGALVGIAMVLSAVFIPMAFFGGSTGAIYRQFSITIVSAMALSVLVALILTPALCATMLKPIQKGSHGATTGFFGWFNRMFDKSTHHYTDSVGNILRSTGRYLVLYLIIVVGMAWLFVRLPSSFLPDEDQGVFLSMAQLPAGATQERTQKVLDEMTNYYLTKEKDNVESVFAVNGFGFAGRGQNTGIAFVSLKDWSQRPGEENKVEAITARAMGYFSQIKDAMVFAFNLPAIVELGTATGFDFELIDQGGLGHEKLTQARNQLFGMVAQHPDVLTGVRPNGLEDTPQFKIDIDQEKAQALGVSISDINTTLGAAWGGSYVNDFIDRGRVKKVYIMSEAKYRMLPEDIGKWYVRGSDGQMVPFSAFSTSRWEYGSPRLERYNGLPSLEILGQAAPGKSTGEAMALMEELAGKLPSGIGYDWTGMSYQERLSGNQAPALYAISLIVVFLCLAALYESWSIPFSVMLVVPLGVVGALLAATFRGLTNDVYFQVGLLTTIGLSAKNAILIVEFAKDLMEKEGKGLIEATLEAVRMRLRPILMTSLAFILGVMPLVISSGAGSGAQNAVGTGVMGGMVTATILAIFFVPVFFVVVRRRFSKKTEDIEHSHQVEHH
Description: as §1

[5] = female, CD-1, mouse, in vivo, po, 30 mg/kg
[6] = female, CD-1, mouse, in vivo, po, 30 mg/kg, Caverage plasma, single 30 mg/kg p.o.
[7] = female, CD-1, mouse, in vivo, po, 30 mg/kg, Caverage whole lung, single 30 mg/kg p.o.

Compound: Clc1cc2cc(N3CCNCC3)ccc2nc1N1CCNCC1 [compound 5]
- toxicity in mice [1]: no toxicity was observed
- inhibition of the hERG potassium channel [2]: 8%
- solubility at 24 h (Solubility in PBS pH 7.4): ≥ 1000 µM
- Tmax [3, 5]: 4 h
- half-life [3, 5]: > 10 h
- AUC(0-t) ([3]; female, CD-1, mouse, in vivo, po, 30 mg/kg, AUC(0-24h) plasma, single 30 mg/kg p.o., female CD-1 mice): 27 µM·h
- AUC(0-t) ([3]; female, CD-1, mouse, in vivo, po, 30 mg/kg, AUC(0-24h) whole lung, single 30 mg/kg p.o., female CD-1 mice): 3880 µM·h
- concentration at 0.5 h [3, 6]: 800 nM
- concentration at 1 h [3, 6]: 1600 nM
- concentration at 1.5 h [3, 6]: 1300 nM
- concentration at 2 h [3, 6]: 1800 nM
- concentration at 4 h [3, 6]: 2000 nM
- concentration at 6 h [3, 6]: 1400 nM
- concentration at 24 h [3, 6]: 500 nM
- concentration at 0.5 h [3, 7]: 35.4 µM and 11700 ng/g
- concentration at 1 h [3, 7]: 93.5 µM and 31000 ng/g
- concentration at 1.5 h [3, 7]: 102 µM and 33800 ng/g
- concentration at 2 h [3, 7]: 160 µM and 53100 ng/g
- concentration at 4 h [3, 7]: 225 µM and 74700 ng/g
- concentration at 6 h [3, 7]: 168 µM and 55900 ng/g
- concentration at 24 h [3, 7]: 159 µM and 52800 ng/g
- Cmax ([3]; female, CD-1, mouse, in vivo, po, 30 mg/kg, Cmax plasma, single 30 mg/kg p.o., female CD-1 mice): 2000 nM
- Cmax ([3]; female, CD-1, mouse, in vivo, po, 30 mg/kg, Cmax whole lung, single 30 mg/kg p.o., female CD-1 mice): 225 µM and 75000 ng/g
- Cmax ([3]; read-out: Cmax whole lung, single 30 mg/kg p.o., female CD-1 mice, listed as BDM91288 (5)): 225000 nM
- concentration-dependent stimulation of berberine uptake [4]: not observed
- pKi (K. pneumoniae AcrB): ~4.70
